The values that follow come from patent publication US12319655B2, “RAF kinase inhibitors and methods of use thereof” (Deciphera Pharmaceuticals, LLC, priority 2021, dated 2025).

Each structure is given as a SMILES string. Bounds are passed on as bounds.

One assay concerns H2405 cells. Put plainly: H2405 Cell Proliferation Assay (1). The assay is classed as cell-based. The settings on record: Homo sapiens, NCI-H2405. The method, boiled down:
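Viability was read by resazurin reduction (ex 540 nm, em 600 nm; 5-6 h with 40 μL of 440 μM stock) after 67-72 h compound exposure at 37 °C.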

In assay [1] the target is C-Raf kinase (SEQ. ID NO: 3) (Homo sapiens (Human), UniProt P04049, Y340D/Y341D). Briefly: Biochemical Assay for C-Raf (1). The conditions noted are these: Table J, assay version (1); read-out: CRAF (1) IC50. The method, boiled down:
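IC50 values come from a four-parameter fit of percent inhibition, using the reaction rate over 4–5 h of a 6 h continuous 340 nm read at 30 °C. The enzyme mix was C-Raf 0.43 nM, MEK substrate 30.1 nM and ATP 1 mM, in a PK/LDH NADH-coupled format in Tris pH 7.5 with 1% DMSO.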

Assay [2] concerns the target B-Raf (V600E) (SEQ. ID NO: 4) kinase (Homo sapiens (Human), UniProt P15056, V600E). Put plainly: Biochemical Assay for B-Raf (V600E) (1). The conditions noted are these: Table J, BRAF V600E, assay version (1); read-out: BRAF VE (1) IC50. Put shortly: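 Serially diluted compounds tested against 0.03 nM enzyme with 30.1 nM MEK substrate and 1 mM ATP (Tris pH 7.5, 15 mM MgCl2), ATP use coupled to NADH loss via PK/LDH. A340 monitored continuously 6 h, 30 °C; IC50 fitted (four-parameter) from the 3–4 h rate versus no-compound and known-inhibitor controls.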

For assay [3], the target named is B-Raf kinase (SEQ. ID NO: 2) (Homo sapiens (Human), UniProt P15056). Put plainly: Biochemical Assay for B-Raf (1). The settings on record: Table J, assay version (1); read-out: BRAF (1) IC50. Put shortly: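 IC50 derived by four-parameter sigmoidal fit of percent inhibition, normalised to uninhibited and reference-inhibitor controls, using reaction rates over 4–5 h. Coupled spectrophotometric readout (NADH loss at 340 nm, 6 h, 30° C.); 1 mM ATP, 30.1 nM MEK, 0.13 nM B-Raf, pH 7.5 Tris buffer, 1% DMSO.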
Sequence of B-Raf kinase (SEQ. ID NO: 2) (P15056 416-766): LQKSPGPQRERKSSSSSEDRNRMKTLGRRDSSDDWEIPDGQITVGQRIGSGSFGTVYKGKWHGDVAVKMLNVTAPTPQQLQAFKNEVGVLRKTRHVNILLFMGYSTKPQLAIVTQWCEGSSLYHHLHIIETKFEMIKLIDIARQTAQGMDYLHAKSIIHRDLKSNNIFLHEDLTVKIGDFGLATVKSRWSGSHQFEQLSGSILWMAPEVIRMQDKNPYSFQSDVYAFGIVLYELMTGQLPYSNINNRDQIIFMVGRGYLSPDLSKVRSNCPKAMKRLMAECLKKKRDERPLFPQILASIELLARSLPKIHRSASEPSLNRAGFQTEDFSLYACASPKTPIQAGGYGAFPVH

Sequence of C-Raf kinase (SEQ. ID NO: 3) (P04049 307-648 Y340D/Y341D): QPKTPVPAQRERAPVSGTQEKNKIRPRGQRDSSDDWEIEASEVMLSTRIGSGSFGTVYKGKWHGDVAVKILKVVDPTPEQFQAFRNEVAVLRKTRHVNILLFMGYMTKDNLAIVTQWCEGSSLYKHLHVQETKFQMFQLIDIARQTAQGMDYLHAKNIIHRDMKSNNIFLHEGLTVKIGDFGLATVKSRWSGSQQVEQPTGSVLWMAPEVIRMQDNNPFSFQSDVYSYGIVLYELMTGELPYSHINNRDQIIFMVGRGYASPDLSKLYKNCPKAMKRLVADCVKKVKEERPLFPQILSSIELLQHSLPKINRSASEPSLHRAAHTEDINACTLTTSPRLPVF
Sequence of B-Raf (V600E) (SEQ. ID NO: 4) kinase (P15056 416-766 V600E): as the sequence (P15056 416-766) above, with V185E counted along it

What is called IC50 is the point on the concentration scale where inhibition reaches its midpoint. As to `CNC(=O)c1cc(-c2cncc(-c3cc(NC(=O)c4ccnc(C(C)(C)C#N)c4)ccc3C)c2)ncn1` [Example 235], the IC50 in the assay with H2405 cells is 100 to 500 nM; in assay [1], not above 100 nM; in assay [2], not above 100 nM; in assay [3], 100 to 500 nM.

As for `Cc1ccc(NC(=O)c2ccnc(C(C)(C)C#N)c2)cc1-c1cccc(-c2cc(NC(=O)C3(F)CC3)ncn2)c1` [Example 200], the figures for the half-maximal inhibitory concentration (IC50) in assay [1], in assay [2] and in assay [3] were not above 100 nM, not above 100 nM and 100 to 500 nM, respectively.

For the compound `Cc1ccc(NC(=O)c2ccnc(C3(C#N)CC3)c2)cc1-c1cccc(-c2cc(NC(=O)C3CC3)ncn2)n1` [Example 220], the IC50 in assay [1] was 100 to 500 nM; in assay [2], not above 100 nM; in assay [3] it was 100 to 500 nM.

For the compound `Cc1ccc(NC(=O)c2ccnc(C(C)(C)C#N)c2)cc1-c1cc(-c2cc(NC(=O)C3CC3)ncn2)cc(C2CC2)c1` [Example 216], the results for the IC50 in assay [1], in assay [2] and in assay [3] were 100 to 500 nM, not above 100 nM and 100 to 500 nM, respectively.

Take `Cc1cc(F)c(NC(=O)c2cnnc(C3CC3)c2)cc1-c1nccc(-c2ccnc(NC(=O)C3CC3)c2)n1` [Example 252]: the concentration for half-maximal inhibition (IC50) in assay [1], in assay [2] and in assay [3] was not above 100 nM each time.

For `Cc1cc(-c2cc(NC(=O)C3CC3)ncn2)cc(-c2cc(NC(=O)c3ccnc(C(C)(C)C#N)c3)ccc2C)c1` [Example 212], the IC50 (in the assay on H2405 cells; in assay [1]; in assay [2]; in assay [3]) was not above 100 nM each time.

`CNC(=O)c1cc(-c2cccc(-c3cc(NC(=O)c4ccnc(C(C)(C)C#N)c4)ccc3C)c2)cnn1` [Example 191]: the IC50 in the assay with H2405 cells is not above 100 nM; in assay [1], not above 100 nM; in assay [2], not above 100 nM; in assay [3], 100 to 500 nM.

Take `Cc1ncc(NC(=O)c2ccnc(C3CC3)c2)cc1-c1ccnc(-c2ccnc(NC(=O)C3CC3)c2)n1` [Example 277]: the IC50 with H2405 cells was 100 to 500 nM; in assay [1], not above 100 nM; in assay [2], not above 100 nM; in assay [3], not above 100 nM.

Turning to `Cc1ncc(NC(=O)c2ccnc(C3CC3)c2)cc1-c1ccnc(-c2ccnc(NC(=O)C3CC3)c2)c1` [Example 253], the IC50 in the assay on H2405 cells was 100 to 500 nM; in assay [1] it was not above 100 nM; in assay [2], not above 100 nM; in assay [3], not above 100 nM.

Consider `Cc1ccc(NC(=O)c2ccnc(C3(C#N)CC3)c2)cc1-c1cccc(-c2cc(NC(=O)C3CC3)ncn2)c1` [Example 203], for which the IC50 in assay [1], in assay [2] and in assay [3] was not above 100 nM in each case.

Take `Cc1ncc(NC(=O)c2ccnc(C3CC3)c2)cc1-c1cccc(-c2ccnc(NC(=O)C3CC3)c2)n1` [Example 270]: the IC50 in the assay on H2405 cells was 100 to 500 nM; in assay [1] it was not above 100 nM; in assay [2] it was not above 100 nM; in assay [3], not above 100 nM.

`CNC(=O)c1cc(-c2nccc(-c3cc(NC(=O)c4ccnc(C(C)(C)C#N)c4)cnc3C)n2)ccn1` [Example 194]: the figures for the IC50 in assay [1], in assay [2] and in assay [3] were 100 to 500 nM, not above 100 nM and 500 to 1000 nM, respectively.

Take `Cc1cc(F)c(NC(=O)c2cnnc(C3CC3)c2)cc1-c1ccnc(-c2ccnc(NC(=O)C3CC3)c2)n1` [Example 263]: the half-maximal inhibitory concentration (IC50) in assay [1], in assay [2] and in assay [3] was not above 100 nM in each case.

Take `Cc1ccc(NC(=O)c2ccnc(C3(C#N)CC3)c2)cc1-c1nccc(-c2ccnc(NC(=O)C3CC3)c2)n1` [Example 187]: the half-inhibitory concentration (IC50) with H2405 cells is 100 to 500 nM; in assay [1] it was not above 100 nM; in assay [2] it was not above 100 nM; in assay [3] it was not above 100 nM.

In the case of `CNC(=O)c1cc(-c2cccc(-c3cc(NC(=O)c4ccnc(C(C)(C)C#N)c4)cnc3C)c2)cnn1` [Example 201], the IC50 with H2405 cells is 100 to 500 nM; in assay [1], 100 to 500 nM; in assay [2], not above 100 nM; in assay [3] it was 500 to 1000 nM.

`Cc1ccc(NC(=O)c2ccnc(C(C)(C)C#N)c2)cc1-c1cccc(-c2ccnc(NC(=O)C3CC3)c2)c1` [Example 223]: the IC50 (in the assay on H2405 cells; in assay [1]; in assay [2]; in assay [3]) was not above 100 nM each time.

Take `Cc1ncc(NC(=O)c2ccnc(C(C)(C)C#N)c2)cc1-c1ccnc(-c2ccnc(NC(=O)C3CC3)c2)n1` [Example 193]: the IC50 (in the assay on H2405 cells; in assay [1]; in assay [2]; in assay [3]) was not above 100 nM in each case.

`Cc1cc(F)c(NC(=O)c2ccnc(C(F)(F)F)c2)cc1-c1cncc(-c2ccnc(NC(=O)C3CC3)c2)n1` [Example 271]: the IC50 in the assay with H2405 cells is 100 to 500 nM; in assay [1] it was not above 100 nM; in assay [2] it was not above 100 nM; in assay [3], not above 100 nM.

With `Cc1ccc(NC(=O)c2ccnc(C3CC3)c2)cc1-c1cccc(-c2cc(NC(=O)C3CC3)ncn2)c1` [Example 255], the IC50 was 100 to 500 nM in the assay with H2405 cells, not above 100 nM in assay [1], not above 100 nM in assay [2] and not above 100 nM in assay [3].

`Cc1ccc(NC(=O)c2ccnc(C(F)(F)F)c2)cc1-c1ccnc(-c2ccnc3c2CC(=O)N3)c1` [Example 18]: the IC50 in assay [1], in assay [2] and in assay [3] was not above 100 nM each time.

As to `CNC(=O)c1cc(-c2cc(-c3cc(NC(=O)c4cccc(C(C)(C)C#N)c4)ccc3C)cc(OCCO)n2)ccn1` [Example 231], the IC50 (in the assay with H2405 cells; in assay [1]; in assay [2]; in assay [3]) was not above 100 nM throughout.

Consider `Cc1ccc(NC(=O)c2ccnc(C(C)(C)C#N)c2)cc1-c1cccc(-c2cc(NC(=O)C3(C)CC3)ncn2)c1` [Example 197], for which the values for the half-maximal inhibitory concentration (IC50) in assay [1], in assay [2] and in assay [3] were 100 to 500 nM, not above 100 nM and 500 to 1000 nM, respectively.

Consider `Cc1cc(F)c(NC(=O)c2ccnc(C3(C#N)CC3)c2)cc1-c1ccnc(-c2ccnc(NC(=O)C3CC3)c2)n1` [Example 262], for which the IC50 in assay [1], in assay [2] and in assay [3] was not above 100 nM throughout.

As to `Cc1ccc(NC(=O)c2ccnc(C(F)(F)F)c2)cc1-c1ccnc(-c2ccnc(NC(=O)CN(C)C)c2)c1` [Example 17], the concentration for half-maximal inhibition (IC50) in assay [1], in assay [2] and in assay [3] was not above 100 nM each time.

Regarding `Cc1ncc(NC(=O)c2ccnc(C(C)(C)C#N)c2)cc1-c1cccc(-c2cc(NC(=O)C(C)(C)C)ncn2)c1` [Example 213], the IC50 was 500 to 1000 nM in assay [1], not above 100 nM in assay [2] and 1000 to 10000 nM in assay [3].

Consider `CNC(=O)c1cc(-c2cc(-c3cc(NC(=O)c4ccnc(C(C)(C)C#N)c4)ccc3F)ccn2)ccn1` [Example 205], for which the IC50 in assay [1] was not above 100 nM; in assay [2] it was not above 100 nM; in assay [3], 100 to 500 nM.

As for `Cc1ccc(NC(=O)c2ccnc(C(C)(C)C#N)c2)cc1-c1ccnc(-c2ccnc(NC(=O)C3CC3)c2)n1` [Example 257], the IC50 in assay [1], in assay [2] and in assay [3] was not above 100 nM throughout.

In the case of `Cc1ncc(NC(=O)c2ccnc(C(C)(C)C#N)c2)cc1-c1ccnc(-c2ccnc(NC(=O)C(C)(C)C#N)c2)c1` [Example 219], the IC50 is 100 to 500 nM in assay [1], not above 100 nM in assay [2] and 100 to 500 nM in assay [3].

Consider `Cc1ccc(NC(=O)c2ccnc(C(C)(C)C#N)c2)cc1-c1cccc(-c2cc(NC(=O)C3CC3)ncn2)n1` [Example 233], for which the figures for the IC50 in assay [1], in assay [2] and in assay [3] were not above 100 nM, not above 100 nM and 100 to 500 nM, respectively.

Regarding `Cc1cc(-c2cc(NC(=O)c3ccnc(C(F)(F)F)c3)ccc2C)cc(-c2ccnc3c2CC(=O)N3)n1` [Example 20], the concentration for half-maximal inhibition (IC50) in assay [1], in assay [2] and in assay [3] was not above 100 nM in each case.

Regarding `COC(C)(C)c1cc(C(=O)Nc2ccc(C)c(-c3ccnc(-c4ccnc(NC(=O)C5CC5)c4)n3)c2)ccn1` [Example 190], the IC50 in assay [1], in assay [2] and in assay [3] was not above 100 nM each time.

Regarding `Cc1ccc(NC(=O)c2ccnc(C(F)(F)F)c2)cc1-c1cc(-c2ccnc(NC(=O)C3CC3)c2)n(C)c(=O)c1` [Example 13], the concentration for half-maximal inhibition (IC50) in assay [1], in assay [2] and in assay [3] was not above 100 nM each time.

In the case of `Cc1ncc(NC(=O)c2ccnc(C(C)(C)C#N)c2)cc1-c1cccc(-c2cc(NC(=O)C3CC3)ncn2)n1` [Example 226], the values for the IC50 in assay [1], in assay [2] and in assay [3] were 500 to 1000 nM, 100 to 500 nM and 1000 to 10000 nM, respectively.

As for `CNC(=O)c1cc(-c2cc(-c3cc(NC(=O)c4cnnc(C5CC5)c4)ccc3C)ccn2)ccn1` [Example 215], the IC50 in assay [1], in assay [2] and in assay [3] was not above 100 nM in each case.

Turning to `CC(=O)Nc1cc(-c2cc(-c3cc(NC(=O)c4ccnc(C(F)(F)F)c4)ccc3C)cc(C3CC3)n2)ccn1` [Example 14], the IC50 in assay [1], in assay [2] and in assay [3] was not above 100 nM each time.
